From ChEMBL document CHEMBL5338828, “Structure-Activity Relationships of Bis-Intercalating Peptides and Their Application as Antibody-Drug Conjugate Payloads” (J Med Chem, 2023)

Assays:
[1] = Binding affinity to biotinylated hairpin DNA (unknown origin) assessed as binding constant by SPR analysis
Clupeidae = assay: Binding affinity to Herring sperm DNA assessed as melting temperature by differential scanning calorimetric analysis
[2] = Retention time of the compound by HPLC analysis; type: physicochemical

Row | SMILES | Kd [1] | Tm (Clupeidae) | Retention_time [2]
1 | CN1CC(=O)N2CCCC[C@H]2COC[C@@H](NC(=O)c2nc3ccccc3cc2O)C(=O)N2CCCC[C@H]2C(=O)NCC(=O)N(C)CC(=O)N2CCCC[C@H]2C(=O)NC[C@@H](NC(=O)c2nc3ccccc3cc2O)C(=O)N2CCCC[C@H]2C(=O)NCC1=O | 950 nM | 94 °C | 16.6 min
2 | CC(C)[C@H]1C(=O)NC[C@@H](NC(=O)c2nc3ccccc3cc2O)C(=O)N2CCCC[C@H]2C(=O)NCC(=O)N(C)CC(=O)N(C)C2(CC2)C(=O)NC[C@@H](NC(=O)c2nc3ccccc3cc2O)C(=O)N2CCCC[C@H]2C(=O)NCC(=O)N(C)CC(=O)N1C | 700 nM | – | 15.4 min
3 | CC(C)[C@H]1C(=O)NC[C@@H](NC(=O)c2nc3ccccc3cc2O)C(=O)N2CCCC[C@H]2C(=O)NCC(=O)N(C)CC(=O)N(C)[C@@H](C2CCCCC2)C(=O)NC[C@@H](NC(=O)c2nc3ccccc3cc2O)C(=O)N2CCCC[C@H]2C(=O)NCC(=O)N(C)CC(=O)N1C | 400 nM | 86 °C | 18.9 min
4 | CC(C)[C@H]1C(=O)NC[C@@H](NC(=O)c2nc3ccccc3cc2O)C(=O)N2CCCC[C@H]2C(=O)NCC(=O)N(C)CC(=O)N2CCCCC[C@H]2C(=O)NC[C@@H](NC(=O)c2nc3ccccc3cc2O)C(=O)N2CCCC[C@H]2C(=O)NCC(=O)N(C)CC(=O)N1C | 700 nM | 88 °C | 16.4 min
5 | CC[C@H](C)[C@H]1C(=O)N[C@H](C)[C@@H](NC(=O)c2nc3ccccc3cc2O)C(=O)N2CCCC[C@H]2C(=O)NCC(=O)N(C)CC(=O)N(C)[C@@H]([C@@H](C)CC)C(=O)N[C@H](C)[C@@H](NC(=O)c2nc3ccccc3cc2O)C(=O)N2CCCC[C@H]2C(=O)NCC(=O)N(C)CC(=O)N1C | – | 85 °C | 20.9 min
6 | CCN1C(=O)CN(C)C(=O)CNC(=O)[C@@H]2CCCCN2C(=O)[C@H](NC(=O)c2nc3ccccc3cc2O)CNC(=O)[C@H](C(C)C)N(CC)C(=O)CN(C)C(=O)CNC(=O)[C@@H]2CCCCN2C(=O)[C@H](NC(=O)c2nc3ccccc3cc2O)CNC(=O)[C@@H]1C(C)C | 500 nM | – | 17.9 min
7 | CC(C)[C@H]1C(=O)NC[C@@H](NC(=O)c2nc3ccccc3cc2O)C(=O)N2CCCC[C@H]2C(=O)NCCOCC(=O)N(C)[C@@H](C(C)C)C(=O)NC[C@@H](NC(=O)c2nc3ccccc3cc2O)C(=O)N2CCCC[C@H]2C(=O)NCCOCC(=O)N1C | – | 68 °C | 16 min
8 | CC(C)[C@H]1C(=O)NC[C@@H](NC(=O)c2nc3ccccc3cc2O)C(=O)N2CCCC[C@H]2C(=O)NCC(=O)N(C)CC(=O)N(C)[C@@H]([C@@H](C)O)C(=O)NC[C@@H](NC(=O)c2nc3ccccc3cc2O)C(=O)N2CCCC[C@H]2C(=O)NCC(=O)N(C)CC(=O)N1C | – | 86 °C | 10.6 min
9 | CN1CC(=O)N2CCCC[C@H]2C(=O)NC[C@@H](NC(=O)c2nc3ccccc3cc2O)C(=O)N2CCCC[C@H]2C(=O)NCC(=O)N(C)CC(=O)N2CCCC[C@H]2C(=O)NC[C@@H](NC(=O)c2nc3ccccc3cc2O)C(=O)N2CCCC[C@H]2C(=O)NCC1=O | 500 nM | 97 °C | 15.7 min
10 | CC(C)[C@H]1C(=O)NC[C@@H](NC(=O)c2nc3ccccc3cc2O)C(=O)N2CCCC[C@H]2C(=O)NCC(=O)N(C)CC(=O)N2CCC[C@H]2C(=O)NC[C@@H](NC(=O)c2nc3ccccc3cc2O)C(=O)N2CCCC[C@H]2C(=O)NCC(=O)N(C)CC(=O)N1C | 1100 nM | 88 °C | 15 min
11 | CC(C)[C@H]1COC[C@@H](NC(=O)c2nc3ccccc3cc2O)C(=O)N2CCCC[C@H]2C(=O)NCC(=O)N(C)CC(=O)N(C)[C@@H](C(C)C)C(=O)OC[C@@H](NC(=O)c2nc3ccccc3cc2O)C(=O)N2CCCC[C@H]2C(=O)NCC(=O)N(C)CC(=O)N1C | 300 nM | 96 °C | 20.2 min
12 | CC(C)[C@H]1C(=O)NC[C@@H](NC(=O)c2nc3ccccc3cc2O)C(=O)N2CCCC[C@H]2C(=O)NCC(=O)N(C)CC(=O)N2CCCC[C@H]2C(=O)NC[C@@H](NC(=O)c2nc3ccccc3cc2O)C(=O)N2CCCC[C@H]2C(=O)NCC(=O)N(C)CC(=O)N1C | 570 nM | 92 °C | 16.4 min
13 | CC(C)[C@H]1C(=O)NC[C@@H](NC(=O)c2nc3ccccc3cc2O)C(=O)N2CCCC[C@H]2C(=O)NCC(=O)N(C)CC(=O)N(C)[C@@H]([C@H](C)OC(C)(C)C)C(=O)NC[C@@H](NC(=O)c2nc3ccccc3cc2O)C(=O)N2CCCC[C@H]2C(=O)NCC(=O)N(C)CC(=O)N1C | – | 88 °C | 18.4 min
14 | CC[C@H](C)[C@H]1C(=O)NC[C@@H](NC(=O)c2nc3ccccc3cc2O)C(=O)N2CCCC[C@H]2C(=O)NCC(=O)N(C)CC(=O)N(C)[C@@H]([C@@H](C)CC)C(=O)NC[C@@H](NC(=O)c2nc3ccccc3cc2O)C(=O)N2CCCC[C@H]2C(=O)NCC(=O)N(C)CC(=O)N1C | 400 nM | 91 °C | 18.8 min
15 | C[C@H]1NC(=O)[C@@H]2CCCCN2C(=O)CN(C)C(=O)CNC(=O)[C@@H]2CCCCN2C(=O)[C@H](NC(=O)c2nc3ccccc3cc2O)[C@@H](C)NC(=O)[C@@H]2CCCCN2C(=O)CN(C)C(=O)CNC(=O)[C@@H]2CCCCN2C(=O)[C@@H]1NC(=O)c1nc2ccccc2cc1O | 9 nM | – | 16.7 min
16 | O=C(N[C@@H]1CNC(=O)[C@@H]2CCCCN2C(=O)COCCNC(=O)[C@@H]2CCCCN2C(=O)[C@H](NC(=O)c2nc3ccccc3cc2O)CNC(=O)[C@@H]2CCCCN2C(=O)COCCNC(=O)[C@@H]2CCCCN2C1=O)c1nc2ccccc2cc1O | – | 68 °C | 16.1 min
17 | CN1CC(=O)N2CCCCC[C@H]2C(=O)NC[C@@H](NC(=O)c2nc3ccccc3cc2O)C(=O)N2CCCC[C@H]2C(=O)NCC(=O)N(C)CC(=O)N2CCCCC[C@H]2C(=O)NC[C@@H](NC(=O)c2nc3ccccc3cc2O)C(=O)N2CCCC[C@H]2C(=O)NCC1=O | 770 nM | – | 15.8 min
18 | CC[C@@H](C)[C@H]1C(=O)NC[C@@H](NC(=O)c2nc3ccc(Br)cc3cc2O)C(=O)N2CCCC[C@H]2C(=O)NCC(=O)N(C)CC(=O)N(C)[C@@H]([C@H](C)CC)C(=O)NC[C@@H](NC(=O)c2nc3ccc(Br)cc3cc2O)C(=O)N2CCCC[C@H]2C(=O)NCC(=O)N(C)CC(=O)N1C | – | – | 21 min
19 | CC(C)[C@@H]1NC(=O)CN(C)C(=O)CNC(=O)[C@@H]2CCCCN2C(=O)[C@H](NC(=O)c2nc3ccccc3cc2O)CNC(=O)[C@H](C(C)C)NC(=O)CN(C)C(=O)CNC(=O)[C@@H]2CCCCN2C(=O)[C@H](NC(=O)c2nc3ccccc3cc2O)CNC1=O | 9000 nM | – | 14.6 min
20 | CC(C)[C@H]1C(=O)NC[C@@H](NC(=O)c2nc3ccccc3cc2O)C(=O)N2CCCC[C@H]2C(=O)NCC(=O)N(C)CC(=O)N(C)C2(CCC2)C(=O)NC[C@@H](NC(=O)c2nc3ccccc3cc2O)C(=O)N2CCCC[C@H]2C(=O)NCC(=O)N(C)CC(=O)N1C | 300 nM | – | 17 min
21 | CC[C@H](C)[C@H]1C(=O)NC[C@@H](NC(=O)c2nc3ccccc3cc2O)C(=O)N2CCCC[C@H]2C(=O)NCC(=O)N(C)CC(=O)N(C)[C@@H](C(C)C)C(=O)NC[C@@H](NC(=O)c2nc3ccccc3cc2O)C(=O)N2CCCC[C@H]2C(=O)NCC(=O)N(C)CC(=O)N1C | 200 nM | 89 °C | 18 min
22 | CC(C)[C@H]1C(=O)N[C@H](C)[C@@H](NC(=O)c2nc3ccccc3cc2O)C(=O)N2CCCC[C@H]2C(=O)NCC(=O)N(C)CC(=O)N(C)[C@@H](C(C)C)C(=O)N[C@H](C)[C@@H](NC(=O)c2nc3ccccc3cc2O)C(=O)N2CCCC[C@H]2C(=O)NCC(=O)N(C)CC(=O)N1C | – | 87 °C | 17.6 min
23 | CCN1CC(=O)N(C)[C@@H](C(C)C)C(=O)NC[C@@H](NC(=O)c2nc3ccccc3cc2O)C(=O)N2CCCC[C@H]2C(=O)NCC(=O)N(CC)CC(=O)N(C)[C@@H](C(C)C)C(=O)NC[C@@H](NC(=O)c2nc3ccccc3cc2O)C(=O)N2CCCC[C@H]2C(=O)NCC1=O | 300 nM | – | 18.5 min
24 | CC(C)[C@H]1C(=O)NC[C@@H](NC(=O)c2nc3ccccc3cc2O)C(=O)N2CCCC[C@H]2C(=O)NCC(=O)N(C)CC(=O)N(C)C(C)(C)C(=O)NC[C@@H](NC(=O)c2nc3ccccc3cc2O)C(=O)N2CCCC[C@H]2C(=O)NCC(=O)N(C)CC(=O)N1C | 700 nM | – | 15.8 min
25 | CC[C@H](C)[C@H]1COC[C@@H](NC(=O)c2nc3ccccc3cc2O)C(=O)N2CCCC[C@H]2C(=O)NCC(=O)N(C)CC(=O)N(C)[C@@H](C(C)C)C(=O)NC[C@@H](NC(=O)c2nc3ccccc3cc2O)C(=O)N2CCCC[C@H]2C(=O)NCC(=O)N(C)CC(=O)N1C | 50 nM | – | 19.4 min
26 | CC(C)[C@H]1COC[C@@H](NC(=O)c2nc3ccccc3cc2O)C(=O)N2CCCC[C@H]2C(=O)NCC(=O)N(C)CC(=O)N(C)[C@@H](C(C)C)COC[C@@H](NC(=O)c2nc3ccccc3cc2O)C(=O)N2CCCC[C@H]2C(=O)NCC(=O)N(C)CC(=O)N1C | – | 91 °C | 18.2 min
27 | CC(C)[C@H]1C(=O)O[C@H](C)[C@@H](NC(=O)c2nc3ccccc3cc2O)C(=O)N2CCCC[C@H]2C(=O)NCC(=O)N(C)CC(=O)N(C)[C@@H](C(C)C)C(=O)O[C@H](C)[C@@H](NC(=O)c2nc3ccccc3cc2O)C(=O)N2CCCC[C@H]2C(=O)NCC(=O)N(C)CC(=O)N1C | – | 85 °C | 21.6 min
28 | CC(C)[C@H]1C(=O)N(C)C[C@@H](NC(=O)c2nc3ccccc3cc2O)C(=O)N2CCCC[C@H]2C(=O)NCC(=O)N(C)CC(=O)N(C)[C@@H](C(C)C)C(=O)N(C)C[C@@H](NC(=O)c2nc3ccccc3cc2O)C(=O)N2CCCC[C@H]2C(=O)NCC(=O)N(C)CC(=O)N1C | – | 88 °C | 17.7 min
29 | CC(C)[C@H]1C(=O)NC[C@@H](NC(=O)c2nc3ccccc3cc2O)C(=O)N2CCCC[C@H]2C(=O)NCC(=O)N(C)CC(=O)N(C)[C@@H](c2ccccc2)C(=O)NC[C@@H](NC(=O)c2nc3ccccc3cc2O)C(=O)N2CCCC[C@H]2C(=O)NCC(=O)N(C)CC(=O)N1C | 1000 nM | – | 17.2 min
